Holding throughout (assay type): functional
What all share (conditions): route intraperitoneal

The subject of assay [1] is Mus musculus. The experiment in a line: Anticonvulsant activity in Mus musculus albino (mouse) assessed as protection against maximal electroshock-induced seizures at 30 mg/kg, ip administered 30 min prior to electro shock-challenge measured for 2 min relative to phenytoin. (In general: The maximal electroshock test induces tonic seizures with an electrical stimulus.)

The test system of assay [2] is Mus musculus. The experiment in a line: Anticonvulsant activity in Mus musculus albino (mouse) assessed as protection against maximal electroshock-induced seizures at 30 mg/kg, ip administered 30 min prior to electro shock-challenge measured for 2 min relative to control.
For assay [3], the system named is Mus musculus. The experiment in a line: Anticonvulsant activity in Mus musculus albino (mouse) assessed as protection against maximal electroshock-induced seizures at 25 mg/kg, ip administered 30 min prior to electro shock-challenge measured for 2 min relative to control.

Structures are written as SMILES.

`O=C(N/N=C(\C=C\c1ccccc1O)c1ccc(O)cc1O)Nc1ccc(Br)cc1`: the figures for the Activity in the assay with Mus musculus [1] and in the assay with Mus musculus [2] were 91.21% and 72.93%, respectively. The like results for `O=C(N/N=C(\C=C\c1ccccc1O)c1cc(O)ccc1O)Nc1ccc(F)cc1` were, in that order, 94.98% and 75.94%. The matching figures for `COc1ccc(/C=C/C(=N\NC(=O)Nc2ccc(F)cc2)c2cc(O)ccc2O)cc1`: 56.54% and 45.21%. As for `O=C(N/N=C(\C=C\c1ccccc1O)c1ccc(O)cc1O)Nc1ccc(F)cc1`, the Activity came out at 92.62% in the assay with Mus musculus [1] and 74.05% with Mus musculus [2].

Take `COc1ccc(/C=C/C(=N\NC(=O)Nc2ccc(Br)cc2)c2ccccc2O)cc1`: the Activity with Mus musculus [1] amounted to 64.34%; in the assay with Mus musculus [2], 51.44%.

Regarding `CN(C)c1ccc(/C=C/C(=N\NC(=O)Nc2ccc(F)cc2)c2ccccc2O)cc1`, the Activity came to 45.26% in the assay on Mus musculus [1] and 36.19% in the assay on Mus musculus [2]. Turning to `O=C1NC(=O)C(c2ccccc2)(c2ccccc2)N1` [PHENYTOIN], in the assay on Mus musculus [3], the Activity is on record as 79.95%. As to `CN(C)c1ccc(/C=C/C(=N\NC(=O)Nc2ccc(Br)cc2)c2ccccc2O)cc1`, the Activity came to 38.71% in the assay with Mus musculus [1] and 30.95% in the assay on Mus musculus [2]. The like results for `O=C(N/N=C(\C=C\c1ccc(O)cc1)c1ccccc1O)Nc1ccc(Br)cc1` were, in that order, 84.95% and 67.92%. The like results for `O=C(N/N=C(\C=C\c1ccccc1)c1ccccc1O)Nc1ccc(F)cc1` were, in that order, 28.96% and 23.16%. The matching figures for `O=C(N/N=C(\C=C\c1ccc(O)cc1)c1ccccc1O)Nc1ccc(F)cc1`: 87.74% and 70.15%. On to `O=C(N/N=C(\C=C\c1ccccc1)c1ccccc1O)Nc1ccc(Br)cc1`, for which the results for the Activity in the assay with Mus musculus [1] and with Mus musculus [2] were 28.26% and 22.6%, respectively.

Turning to `COc1ccc(/C=C/C(=N\NC(=O)Nc2ccc(Br)cc2)c2cc(O)ccc2O)cc1`, the Activity in the assay with Mus musculus [1] was determined as 49.71%; in the assay with Mus musculus [2] it was 39.75%.

Regarding `O=C(N/N=C(\C=C\c1ccccc1O)c1ccccc1O)Nc1ccc(F)cc1`, the Activity with Mus musculus [1] stood at 83.56%; with Mus musculus [2] it was 66.81%. In the case of `O=C(N/N=C(\C=C\c1ccc(O)cc1)c1cc(O)ccc1O)Nc1ccc(F)cc1`, the Activity in the assay with Mus musculus [1] is on record as 99.72%; with Mus musculus [2] it was 79.73%. The like results for `O=C(N/N=C(\C=C\c1ccc(O)cc1)c1cc(O)ccc1O)Nc1ccc(Br)cc1` were, in that order, 95.82% and 76.61%. The like results for `O=C(N/N=C(\C=C\c1ccccc1O)c1ccccc1O)Nc1ccc(Br)cc1` were, in that order, 81.06% and 64.81%.

In the case of `COc1ccc(/C=C/C(=N\NC(=O)Nc2ccc(F)cc2)c2ccccc2O)cc1`, the Activity in the assay with Mus musculus [1] is on record as 66.42%; in the assay on Mus musculus [2], 53.11%.

Consider `CN(C)c1ccc(/C=C/C(=N\NC(=O)Nc2ccc(Br)cc2)c2ccc(O)cc2O)cc1`, for which the Activity with Mus musculus [1] was found to be 30.35%; with Mus musculus [2], 24.27%. The like results for `O=C(N/N=C(\C=C\c1ccccc1O)c1cc(O)ccc1O)Nc1ccc(Br)cc1` were, in that order, 94% and 75.16%.

Take `CN(C)c1ccc(/C=C/C(=N\NC(=O)Nc2ccc(F)cc2)c2ccc(O)cc2O)cc1`: the Activity with Mus musculus [1] amounted to 37.04%; in the assay with Mus musculus [2] it was 29.62%.
